Target: Sodium-dependent serotonin transporter (Rattus norvegicus, UniProt P31652)
Test: Compound was tested for binding affinity to Serotonin transporter sites in homogenates prepared from rat cortical membranes using [3H]paroxetine as radioligand

Sodium-dependent serotonin transporter, sequence (P31652 whole entry): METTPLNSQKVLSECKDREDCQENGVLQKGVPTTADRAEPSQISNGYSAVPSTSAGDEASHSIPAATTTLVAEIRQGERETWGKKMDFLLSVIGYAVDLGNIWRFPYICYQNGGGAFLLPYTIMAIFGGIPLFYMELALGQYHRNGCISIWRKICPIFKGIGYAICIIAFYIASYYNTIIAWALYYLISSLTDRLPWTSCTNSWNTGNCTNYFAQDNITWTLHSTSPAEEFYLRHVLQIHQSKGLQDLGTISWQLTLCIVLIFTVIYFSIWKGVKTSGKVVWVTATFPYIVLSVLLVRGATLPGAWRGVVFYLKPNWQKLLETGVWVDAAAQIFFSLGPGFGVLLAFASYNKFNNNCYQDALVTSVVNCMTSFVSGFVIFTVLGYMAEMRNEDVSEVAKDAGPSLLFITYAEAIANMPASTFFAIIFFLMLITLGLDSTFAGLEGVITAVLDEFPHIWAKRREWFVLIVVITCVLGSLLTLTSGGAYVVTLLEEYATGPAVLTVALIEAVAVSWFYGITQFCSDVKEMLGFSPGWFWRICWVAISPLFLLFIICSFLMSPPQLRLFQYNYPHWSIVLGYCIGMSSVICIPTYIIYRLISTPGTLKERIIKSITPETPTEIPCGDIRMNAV

| SMILES | IC50 [nM] |
| --- | --- |
| COC(=O)[C@H]1[C@@H](c2ccc(F)cc2)C[C@H]2CC[C@H]1N2C | 479 |
| COC(=O)[C@@H]1C2CC[C@H](C[C@@H]1c1ccc(I)cc1)N2C | 3.78 |

Source: ChEMBL document CHEMBL1125816, “[123I]-2 beta-carbomethoxy-3 beta-(4-iodophenyl)tropane: high-affinity SPECT radiotracer of monoamine reuptake sites in brain” (J Med Chem, 1991)
